# Laboratory results as given in patent US10736883B2, “Triazole furan compounds as agonists of the APJ receptor” (AMGEN INC., priority 2016, dated 2020).
# Target: APJ receptor (Homo sapiens (Human), UniProt P35414)
# Experiment: [35S]GTPγS binding assay on membranes from CHO cells stably expressing human APJ receptor
# Format: biochemical
# Settings: membranes of CHO cells stably expressing human APJ receptor, means of several independent experiments, read-out: Activity hAPJ SPA EC50 IP
# In short: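 Membranes from CHO cells stably expressing human APJ were incubated with 0.2 nM [35S]GTPγS and ligands for 90 min at RT in 20 mM HEPES pH 7.5, 5 mM MgCl2, 200 mM NaCl, 3 μM GDP, 0.1% BSA with WGA PS beads. Nonspecific binding was set with 100 μM GTPγS. EC50 came from non-linear regression.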
# Sequence of APJ receptor (P35414 whole entry): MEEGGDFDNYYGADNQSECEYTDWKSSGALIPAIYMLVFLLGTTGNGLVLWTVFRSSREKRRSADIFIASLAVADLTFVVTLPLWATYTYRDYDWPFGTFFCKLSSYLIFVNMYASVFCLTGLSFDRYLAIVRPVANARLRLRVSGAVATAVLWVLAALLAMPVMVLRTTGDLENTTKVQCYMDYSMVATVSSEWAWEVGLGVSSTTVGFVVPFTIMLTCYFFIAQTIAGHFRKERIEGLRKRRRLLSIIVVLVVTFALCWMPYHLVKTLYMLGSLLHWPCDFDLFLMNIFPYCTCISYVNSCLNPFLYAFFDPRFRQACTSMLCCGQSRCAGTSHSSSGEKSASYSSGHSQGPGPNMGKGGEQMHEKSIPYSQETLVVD
row,Compound,EC50 [nM]
1,"COc1cccc(OC)c1-n1c(NS(=O)(=O)[C@@H](C)[C@@H](O)c2cc3ccccn3n2)nnc1-c1ccc(C)o1 (single isomer, unassigned) [Example 271.0, (1S,2S)—N-(4-(2,6-Dimethoxyphenyl)-5-(5-methyl-2-furanyl)-4H-1,2,4-triazol-3-yl)-1-hydroxy-1-pyrazolo[1,5-a]pyridin-2-yl-2-propanesulfonamide or (1R,2R)—N-(4-(2,6-dimethoxyphenyl)-5-(5-methyl-2-furanyl)-4H-1,2,4-triazol-3-yl)-1-hydroxy-1-pyrazolo[1,5-a]pyridin-2-yl-2-propanesulfonamide]",0.62
2,"COc1cccc(OC)c1-n1c(NS(=O)(=O)[C@@H](C)[C@H](O)c2cc3n(n2)CCCO3)nnc1-c1ccc(C)o1 (single isomer, unassigned) [Example 292.0, (1R,2S)-1-(6,7-Dihydro-5H-pyrazolo[5,1-b][1,3]oxazin-2-yl)-N-(4-(2,6-dimethoxyphenyl)-5-(5-methyl-2-furanyl)-4H-1,2,4-triazol-3-yl)-1-hydroxy-2-propanesulfonamide or (1S,2R)-1-(6,7-dihydro-5H-pyrazolo[5,1-b][1,3]oxazin-2-yl)-N-(4-(2,6-dimethoxyphenyl)-5-(5-methyl-2-furanyl)-4H-1,2,4-triazol-3-yl)-1-hydroxy-2-propanesulfonamide]",5.1
3,"COc1cccc(OC)c1-n1c(NS(=O)(=O)[C@H](C)[C@@H](O)c2ccnc3c2OCCC3)nnc1-c1ccc(C)o1 (single isomer, unassigned) [Example 293.0, (1R,2S)-1-(3,4-Dihydro-2H-pyrano[3,2-b]pyridin-8-yl)-N-(4-(2,6-dimethoxyphenyl)-5-(5-methyl-2-furanyl)-4H-1,2,4-triazol-3-yl)-1-hydroxy-2-propanesulfonamide or (1S,2R)-1-(3,4-dihydro-2H-pyrano[3,2-b]pyridin-8-yl)-N-(4-(2,6-dimethoxyphenyl)-5-(5-methyl-2-furanyl)-4H-1,2,4-triazol-3-yl)-1-hydroxy-2-propanesulfonamide]",5.5
4,"COc1cccc(OC)c1-n1c(NS(=O)(=O)[C@H](C)[C@@H](O)c2cnc3ccccn23)nnc1-c1ccc(C)o1 (single isomer, unassigned) [Example 294.0, (1R,2S)—N-(4-(2,6-Dimethoxyphenyl)-5-(5-methyl-2-furanyl)-4H-1,2,4-triazol-3-yl)-1-hydroxy-1-imidazo[1,2-a]pyridin-3-yl-2-propanesulfonamide or (1S,2R)—N-(4-(2,6-dimethoxyphenyl)-5-(5-methyl-2-furanyl)-4H-1,2,4-triazol-3-yl)-1-hydroxy-1-imidazo[1,2-a]pyridin-3-yl-2-propanesulfonamide]",5.8
5,"COc1cccc(OC)c1-n1c(NS(=O)(=O)[C@@H](C)[C@H](O)c2cccc3ccnn23)nnc1-c1ccc(C)o1 (single isomer, unassigned) [Example 296.0, (1R,2S)—N-(4-(2,6-Dimethoxyphenyl)-5-(5-methyl-2-furanyl)-4H-1,2,4-triazol-3-yl)-1-hydroxy-1-pyrazolo[1,5-a]pyridin-7-yl-2-propanesulfonamide or (1S,2R)—N-(4-(2,6-dimethoxyphenyl)-5-(5-methyl-2-furanyl)-4H-1,2,4-triazol-3-yl)-1-hydroxy-1-pyrazolo[1,5-a]pyridin-7-yl-2-propanesulfonamide]",6.8

# Continued by falling EC50, values first:
row,EC50 [nM],Compound
1,4.9,"COc1cccc(OC)c1-n1c(NS(=O)(=O)[C@@H](C)[C@H](O)c2cn3ccccc3n2)nnc1-c1ccc(C)o1 (single isomer, unassigned) [Example 289.0, (1R,2S)—N-(4-(2,6-Dimethoxyphenyl)-5-(5-methyl-2-furanyl)-4H-1,2,4-triazol-3-yl)-1-hydroxy-1-imidazo[1,2-a]pyridin-2-yl-2-propanesulfonamide or (1S,2R)—N-(4-(2,6-dimethoxyphenyl)-5-(5-methyl-2-furanyl)-4H-1,2,4-triazol-3-yl)-1-hydroxy-1-imidazo[1,2-a]pyridin-2-yl-2-propanesulfonamide]"
2,4.2,"COc1cccc(OC)c1-n1c(NS(=O)(=O)[C@H](C)[C@@H](O)c2ncn3ccccc23)nnc1-c1ccc(C)o1 (single isomer, unassigned) [Example 288.0, (1R,2S)—N-(4-(2,6-Dimethoxyphenyl)-5-(5-methyl-2-furanyl)-4H-1,2,4-triazol-3-yl)-1-hydroxy-1-imidazo[1,5-a]pyridin-1-yl-2-propanesulfonamide or (1S,2R)—N-(4-(2,6-dimethoxyphenyl)-5-(5-methyl-2-furanyl)-4H-1,2,4-triazol-3-yl)-1-hydroxy-1-imidazo[1,5-a]pyridin-1-yl-2-propanesulfonamide]"
3,4.1,"COc1cccc(OC)c1-n1c(NS(=O)(=O)[C@H](C)[C@@H](OC)c2cn3ccccc3n2)nnc1-c1ccc(C)o1 (single isomer, unassigned) [Example 287.0, (1R,2S)—N-(4-(2,6-Dimethoxyphenyl)-5-(5-methyl-2-furanyl)-4H-1,2,4-triazol-3-yl)-1-imidazo[1,2-a]pyridin-2-yl-1-methoxy-2-propanesulfonamide or (1S,2R)—N-(4-(2,6-dimethoxyphenyl)-5-(5-methyl-2-furanyl)-4H-1,2,4-triazol-3-yl)-1-imidazo[1,2-a]pyridin-2-yl-1-methoxy-2-propanesulfonamide]"
4,0.85,"COc1cccc(OC)c1-n1c(NS(=O)(=O)[C@@H](C)[C@H](O)c2coc(C)n2)nnc1-c1ccc(C)o1 (single isomer, unassigned) [Example 275.0, (1R,2S)—N-(4-(2,6-Dimethoxyphenyl)-5-(5-methyl-2-furanyl)-4H-1,2,4-triazol-3-yl)-1-hydroxy-1-(2-methyl-1,3-oxazol-4-yl)-2-propanesulfonamide or (1S,2R)—N-(4-(2,6-dimethoxyphenyl)-5-(5-methyl-2-furanyl)-4H-1,2,4-triazol-3-yl)-1-hydroxy-1-(2-methyl-1,3-oxazol-4-yl)-2-propanesulfonamide]"
5,0.72,"COc1cccc(OC)c1-n1c(NS(=O)(=O)[C@@H](C)[C@H](O)c2cn(C)cn2)nnc1-c1ccc(C)o1 (single isomer, unassigned) [Example 273.0, (1R,2S)—N-(4-(2,6-Dimethoxyphenyl)-5-(5-methyl-2-furanyl)-4H-1,2,4-triazol-3-yl)-1-hydroxy-1-(1-methyl-1H-imidazol-4-yl)-2-propanesulfonamide or (1S,2R)—N-(4-(2,6-dimethoxyphenyl)-5-(5-methyl-2-furanyl)-4H-1,2,4-triazol-3-yl)-1-hydroxy-1-(1-methyl-1H-imidazol-4-yl)-2-propanesulfonamide]"
6,0.56,"COc1cccc(OC)c1-n1c(NS(=O)(=O)[C@H](C)[C@@H](O)c2ncn3ccccc23)nnc1-c1ccc(C)o1 (single isomer, unassigned) [Example 270.0, (1R,2S)—N-(4-(2,6-Dimethoxyphenyl)-5-(5-methyl-2-furanyl)-4H-1,2,4-triazol-3-yl)-1-hydroxy-1-imidazo[1,5-a]pyridin-1-yl-2-propanesulfonamide or (1S,2R)—N-(4-(2,6-dimethoxyphenyl)-5-(5-methyl-2-furanyl)-4H-1,2,4-triazol-3-yl)-1-hydroxy-1-imidazo[1,5-a]pyridin-1-yl-2-propanesulfonamide]"
